The results in this text go back to PMC3382171 (PLoS ONE, 2012).

Common to all, as to assay: biochemical
What all share (parameters): Invitrogen SelectScreen kinase panel, percent inhibition at 1 uM, ATP at Km
Details in all cases: read-out: Invitrogen KSS %Inh at 1 µM

For one experiment, the target named is AKT1 (PKB alpha) (Homo sapiens, UniProt P31749). An outline of the steps:
(§1)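 Commercial kinase panel screens run with ATP at the Km for each kinase. Compounds tested at 1 µM final concentration; values are % inhibition of phosphorylation relative to control.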

The next experiment has as its target T1, CDC42 BPB (MRCKB) (Homo sapiens, UniProt Q9Y5S2).
T1 construct: gene CDC42BPB
In a few lines:
as §1

The next experiment has as its target CHEK1 (CHK1) (Homo sapiens, UniProt O14757). An outline of the steps: as §1
In the next experiment the target is CHEK2 (CHK2) (Homo sapiens, UniProt O96017). An outline of the steps:
as §1

The target of the next experiment is CLK1 (Homo sapiens, UniProt P49759). In a few lines: as §1
The target in another experiment is EPHA2 (Homo sapiens, UniProt P29317). In a few lines:
as §1

The next experiment deals with EPHA4 (Homo sapiens, UniProt P54764). An outline of the steps:
as §1

The target of another experiment is FGR (Homo sapiens, UniProt P09769). An outline of the steps:
as §1

In another experiment the target is FLT1 (VEGFR1) (Homo sapiens, UniProt P17948). An outline of the steps:
as §1

Another experiment addresses INSR (Homo sapiens, UniProt P06213). In a few lines: as §1
A further experiment concerns the target MARK1 (Homo sapiens, UniProt Q9P0L2). An outline of the steps: as §1
The target in the next experiment is MARK2 (Homo sapiens, UniProt Q7KZI7). An outline of the steps:
as §1

The next experiment concerns the target MET M1250T (Homo sapiens, UniProt P08581, M1250T). In a few lines: as §1
Another experiment addresses MST1R (RON) (Homo sapiens, UniProt Q04912). In a few lines: as §1
For a further experiment, the target named is NEK7 (Homo sapiens, UniProt Q8TDX7). An outline of the steps: as §1
The next experiment concerns the target PDGFRB (PDGFR beta) (Homo sapiens, UniProt P09619). In a few lines:
as §1

The next experiment has as its target PRKACA (PKA) (Homo sapiens, UniProt P17612). In a few lines:
as §1

A further experiment deals with PRKCD (PKC delta) (Homo sapiens, UniProt Q05655). An outline of the steps:
as §1

The next experiment concerns the target SGK (SGK1) (Homo sapiens, UniProt O00141). An outline of the steps: as §1
In a further experiment the target is TBK1 (Homo sapiens, UniProt Q9UHD2). In a few lines:
as §1

In another experiment the target is TEK (Tie2) (Homo sapiens, UniProt Q02763). An outline of the steps:
as §1

The target of another experiment is TYRO3 (RSE) (Homo sapiens, UniProt Q06418). An outline of the steps: as §1

The structures appear in SMILES notation.

Chain of FGR (P09769 whole entry): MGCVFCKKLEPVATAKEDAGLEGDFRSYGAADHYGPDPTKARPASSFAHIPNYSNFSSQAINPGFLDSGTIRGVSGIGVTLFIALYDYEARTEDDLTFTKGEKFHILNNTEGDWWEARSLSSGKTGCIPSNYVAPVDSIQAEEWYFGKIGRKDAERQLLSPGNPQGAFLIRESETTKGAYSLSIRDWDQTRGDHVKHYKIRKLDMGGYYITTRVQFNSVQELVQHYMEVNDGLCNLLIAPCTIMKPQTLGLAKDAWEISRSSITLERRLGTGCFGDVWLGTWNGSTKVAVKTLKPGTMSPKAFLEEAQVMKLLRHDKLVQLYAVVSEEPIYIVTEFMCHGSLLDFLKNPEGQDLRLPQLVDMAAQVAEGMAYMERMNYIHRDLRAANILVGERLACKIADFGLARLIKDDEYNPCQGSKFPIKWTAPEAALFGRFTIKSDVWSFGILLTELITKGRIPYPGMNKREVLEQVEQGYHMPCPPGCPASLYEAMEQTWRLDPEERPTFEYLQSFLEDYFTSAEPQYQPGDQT
Chain of MET M1250T (P08581 whole entry M1250T): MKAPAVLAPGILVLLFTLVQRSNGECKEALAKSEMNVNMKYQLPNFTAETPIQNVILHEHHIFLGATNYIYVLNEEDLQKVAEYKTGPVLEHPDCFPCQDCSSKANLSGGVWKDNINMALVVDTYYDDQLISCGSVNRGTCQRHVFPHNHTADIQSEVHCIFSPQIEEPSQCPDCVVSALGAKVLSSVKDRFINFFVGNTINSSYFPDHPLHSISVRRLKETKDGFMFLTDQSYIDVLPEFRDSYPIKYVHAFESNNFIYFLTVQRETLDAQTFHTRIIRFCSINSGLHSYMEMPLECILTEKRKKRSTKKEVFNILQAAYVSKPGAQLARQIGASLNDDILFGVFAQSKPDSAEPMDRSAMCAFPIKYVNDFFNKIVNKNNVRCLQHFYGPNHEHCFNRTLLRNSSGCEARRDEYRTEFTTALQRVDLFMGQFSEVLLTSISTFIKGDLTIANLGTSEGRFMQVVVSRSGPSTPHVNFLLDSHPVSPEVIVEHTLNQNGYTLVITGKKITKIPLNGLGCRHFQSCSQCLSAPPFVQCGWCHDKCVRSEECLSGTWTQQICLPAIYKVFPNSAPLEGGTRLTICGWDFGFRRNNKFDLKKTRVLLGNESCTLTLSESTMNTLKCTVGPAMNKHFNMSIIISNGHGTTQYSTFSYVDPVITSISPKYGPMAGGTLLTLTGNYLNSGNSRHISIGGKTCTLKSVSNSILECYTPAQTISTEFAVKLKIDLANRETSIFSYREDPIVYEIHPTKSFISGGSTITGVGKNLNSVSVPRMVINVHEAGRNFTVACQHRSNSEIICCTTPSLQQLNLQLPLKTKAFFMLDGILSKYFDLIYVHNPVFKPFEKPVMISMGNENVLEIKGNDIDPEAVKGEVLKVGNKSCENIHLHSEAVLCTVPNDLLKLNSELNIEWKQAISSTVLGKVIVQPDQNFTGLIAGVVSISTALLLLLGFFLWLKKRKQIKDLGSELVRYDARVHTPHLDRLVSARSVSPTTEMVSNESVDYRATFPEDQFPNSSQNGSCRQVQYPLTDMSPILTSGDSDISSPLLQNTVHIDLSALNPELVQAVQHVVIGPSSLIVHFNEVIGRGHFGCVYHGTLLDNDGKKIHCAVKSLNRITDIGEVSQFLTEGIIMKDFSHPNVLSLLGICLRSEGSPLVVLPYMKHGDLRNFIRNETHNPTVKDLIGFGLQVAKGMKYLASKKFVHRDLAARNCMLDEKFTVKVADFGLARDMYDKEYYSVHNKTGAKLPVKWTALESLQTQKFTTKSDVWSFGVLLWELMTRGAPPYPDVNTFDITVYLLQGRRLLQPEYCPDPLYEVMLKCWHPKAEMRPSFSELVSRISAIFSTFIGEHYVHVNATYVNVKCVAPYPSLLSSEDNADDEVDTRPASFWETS
Chain of MST1R (RON) (Q04912 whole entry): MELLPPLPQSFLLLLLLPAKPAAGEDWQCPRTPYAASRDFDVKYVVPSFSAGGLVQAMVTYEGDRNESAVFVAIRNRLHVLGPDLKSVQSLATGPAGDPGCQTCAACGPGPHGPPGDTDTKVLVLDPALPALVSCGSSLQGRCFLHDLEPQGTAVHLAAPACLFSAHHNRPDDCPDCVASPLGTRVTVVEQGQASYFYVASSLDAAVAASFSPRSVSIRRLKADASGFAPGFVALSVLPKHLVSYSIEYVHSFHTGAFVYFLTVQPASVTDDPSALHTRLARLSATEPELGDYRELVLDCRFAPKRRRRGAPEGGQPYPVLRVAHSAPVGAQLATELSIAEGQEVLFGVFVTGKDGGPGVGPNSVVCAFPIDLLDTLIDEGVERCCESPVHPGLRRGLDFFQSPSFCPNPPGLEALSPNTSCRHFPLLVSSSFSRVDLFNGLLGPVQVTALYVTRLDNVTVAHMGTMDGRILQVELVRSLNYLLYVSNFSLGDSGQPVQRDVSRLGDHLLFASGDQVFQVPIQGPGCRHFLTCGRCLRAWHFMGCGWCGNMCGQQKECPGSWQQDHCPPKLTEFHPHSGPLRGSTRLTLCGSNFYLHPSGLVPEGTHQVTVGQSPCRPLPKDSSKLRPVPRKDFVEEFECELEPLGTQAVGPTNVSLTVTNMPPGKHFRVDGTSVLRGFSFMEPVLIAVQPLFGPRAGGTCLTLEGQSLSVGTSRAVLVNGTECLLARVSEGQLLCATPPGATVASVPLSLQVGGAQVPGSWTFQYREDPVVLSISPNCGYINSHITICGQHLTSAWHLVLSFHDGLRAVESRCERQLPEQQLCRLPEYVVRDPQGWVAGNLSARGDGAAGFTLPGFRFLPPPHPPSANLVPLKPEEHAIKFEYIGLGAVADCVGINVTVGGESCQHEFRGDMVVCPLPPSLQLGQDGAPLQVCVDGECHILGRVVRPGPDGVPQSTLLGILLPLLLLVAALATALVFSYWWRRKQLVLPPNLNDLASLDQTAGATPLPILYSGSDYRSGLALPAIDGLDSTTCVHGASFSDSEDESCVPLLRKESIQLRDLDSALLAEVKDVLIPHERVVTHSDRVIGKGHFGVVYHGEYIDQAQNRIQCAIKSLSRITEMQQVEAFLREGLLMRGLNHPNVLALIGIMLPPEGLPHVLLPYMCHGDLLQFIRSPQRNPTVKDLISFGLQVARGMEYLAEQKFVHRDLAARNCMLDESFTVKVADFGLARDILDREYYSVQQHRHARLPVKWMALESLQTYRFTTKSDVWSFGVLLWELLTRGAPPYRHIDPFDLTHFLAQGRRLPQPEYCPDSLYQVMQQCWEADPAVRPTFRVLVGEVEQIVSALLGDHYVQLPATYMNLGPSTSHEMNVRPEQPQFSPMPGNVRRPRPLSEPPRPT
Chain of INSR (P06213 whole entry): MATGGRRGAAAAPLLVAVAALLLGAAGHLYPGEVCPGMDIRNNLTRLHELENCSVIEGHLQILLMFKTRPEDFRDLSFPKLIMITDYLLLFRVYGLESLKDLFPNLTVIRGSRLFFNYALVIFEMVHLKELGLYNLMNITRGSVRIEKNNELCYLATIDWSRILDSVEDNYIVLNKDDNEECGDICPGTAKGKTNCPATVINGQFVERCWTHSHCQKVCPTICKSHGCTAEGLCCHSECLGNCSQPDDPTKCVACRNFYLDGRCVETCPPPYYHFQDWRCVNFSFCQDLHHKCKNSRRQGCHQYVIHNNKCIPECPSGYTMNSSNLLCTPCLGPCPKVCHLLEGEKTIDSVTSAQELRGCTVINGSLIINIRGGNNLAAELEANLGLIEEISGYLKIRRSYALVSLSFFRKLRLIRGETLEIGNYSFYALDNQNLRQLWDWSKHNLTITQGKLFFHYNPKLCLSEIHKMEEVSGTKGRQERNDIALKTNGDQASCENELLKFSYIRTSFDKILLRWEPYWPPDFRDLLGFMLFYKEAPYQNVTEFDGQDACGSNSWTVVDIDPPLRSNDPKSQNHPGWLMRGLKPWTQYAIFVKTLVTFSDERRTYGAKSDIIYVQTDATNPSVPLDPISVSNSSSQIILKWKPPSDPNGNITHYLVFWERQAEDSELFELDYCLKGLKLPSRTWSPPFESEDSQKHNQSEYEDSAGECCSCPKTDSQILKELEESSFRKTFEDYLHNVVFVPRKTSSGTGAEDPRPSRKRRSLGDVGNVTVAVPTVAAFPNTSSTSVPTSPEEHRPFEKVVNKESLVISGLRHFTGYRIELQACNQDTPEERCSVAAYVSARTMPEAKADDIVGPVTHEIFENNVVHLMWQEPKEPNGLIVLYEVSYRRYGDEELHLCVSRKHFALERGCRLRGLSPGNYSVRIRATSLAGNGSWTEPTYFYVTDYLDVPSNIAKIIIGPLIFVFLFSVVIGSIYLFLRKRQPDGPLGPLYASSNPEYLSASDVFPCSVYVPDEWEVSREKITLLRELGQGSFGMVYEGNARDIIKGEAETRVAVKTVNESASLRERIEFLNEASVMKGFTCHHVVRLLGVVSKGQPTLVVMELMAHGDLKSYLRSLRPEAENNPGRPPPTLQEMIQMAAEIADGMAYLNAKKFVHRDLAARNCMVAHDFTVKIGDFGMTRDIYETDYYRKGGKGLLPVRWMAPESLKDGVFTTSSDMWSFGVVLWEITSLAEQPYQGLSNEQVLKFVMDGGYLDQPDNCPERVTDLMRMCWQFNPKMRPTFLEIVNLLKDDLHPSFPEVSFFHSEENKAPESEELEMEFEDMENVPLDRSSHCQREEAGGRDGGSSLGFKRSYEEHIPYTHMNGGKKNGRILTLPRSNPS
Chain of NEK7 (Q8TDX7 whole entry): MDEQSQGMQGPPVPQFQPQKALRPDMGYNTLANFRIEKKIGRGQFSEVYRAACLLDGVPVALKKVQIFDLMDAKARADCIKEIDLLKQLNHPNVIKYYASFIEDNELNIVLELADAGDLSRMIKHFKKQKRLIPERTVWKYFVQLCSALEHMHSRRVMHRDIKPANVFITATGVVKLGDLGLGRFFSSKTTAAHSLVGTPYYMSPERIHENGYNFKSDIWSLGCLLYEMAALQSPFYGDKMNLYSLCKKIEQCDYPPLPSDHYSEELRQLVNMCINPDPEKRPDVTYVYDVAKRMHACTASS

As for `N#CCCNc1nccc(-c2cn(CC(F)F)nc2-c2cnc3[nH]ccc3c2)n1` [RAFi, PF-04880594], the inhibition at 1 µM was 5% on AKT1 (PKB alpha); 21% on CDC42 BPB (MRCKB); 3% on CHEK1 (CHK1); 7% at CHEK2 (CHK2); 1% at CLK1; -2% at EPHA2. Besides, the inhibition at 1 µM on EPHA4 was 1%; on FGR, 2%; at FLT1 (VEGFR1) it was 2%; on INSR it was -4%; on MARK1 it was 2%; at MARK2 it was 9%. For the same compound, the inhibition at 1 µM on MET M1250T is 7%; at MST1R (RON), 2%; on NEK7, 23%; at PDGFRB (PDGFR beta) it was 2%; on PRKACA (PKA), -1%; at PRKCD (PKC delta), 6%. The inhibition at 1 µM on SGK (SGK1) was 7%; at TBK1 it was -7%; on TEK (Tie2) it was 2%; on TYRO3 (RSE) it was 10%.
